Measurements from patent US20240269139A1, “COMPOUNDS FOR TARGETED PROTEIN DEGRADATION OF KINASES” (DANA-FARBER CANCER INSTITUTE, INC., priority 2020, published 2024).
Read-outs that look alike come from different tables or passages of the source.

How the values were obtained:
Type in all cases: cell-based
[1] = molecular target: protein kinases (human kinome) (Homo sapiens, UniProt Q9BYT3); conditions: STK33 (Q9BYT3-1)
[2] = molecular target: protein kinases (human kinome) (Homo sapiens, UniProt Q15131)
[3] = molecular target: T1, protein kinases (human kinome) (Homo sapiens, UniProt Q6PHR2); conditions: for logFC ULK3: ULK3 (Q6PHR2-1)
T1 sequence (Q6PHR2 1-472): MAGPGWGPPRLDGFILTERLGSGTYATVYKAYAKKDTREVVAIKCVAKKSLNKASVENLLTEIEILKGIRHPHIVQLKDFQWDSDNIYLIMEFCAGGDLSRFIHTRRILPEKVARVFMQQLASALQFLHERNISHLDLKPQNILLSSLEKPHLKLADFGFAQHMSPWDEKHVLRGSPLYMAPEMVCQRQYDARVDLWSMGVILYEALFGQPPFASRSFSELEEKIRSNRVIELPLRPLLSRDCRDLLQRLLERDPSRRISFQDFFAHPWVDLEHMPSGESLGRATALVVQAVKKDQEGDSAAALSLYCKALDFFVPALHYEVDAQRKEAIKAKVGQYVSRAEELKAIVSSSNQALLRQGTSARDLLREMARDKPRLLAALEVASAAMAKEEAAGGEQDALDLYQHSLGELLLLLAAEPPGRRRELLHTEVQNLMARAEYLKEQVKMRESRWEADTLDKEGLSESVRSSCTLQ

[4] = molecular target: protein kinases (human kinome) (Homo sapiens, UniProt Q15208); conditions: for logFC: STK38 (Q15208)
[5] = molecular target: T2, protein kinases (human kinome) (Homo sapiens, UniProt O60285); conditions: NUAK1 (O60285), experiment wp146
T2 sequence (O60285 1-661): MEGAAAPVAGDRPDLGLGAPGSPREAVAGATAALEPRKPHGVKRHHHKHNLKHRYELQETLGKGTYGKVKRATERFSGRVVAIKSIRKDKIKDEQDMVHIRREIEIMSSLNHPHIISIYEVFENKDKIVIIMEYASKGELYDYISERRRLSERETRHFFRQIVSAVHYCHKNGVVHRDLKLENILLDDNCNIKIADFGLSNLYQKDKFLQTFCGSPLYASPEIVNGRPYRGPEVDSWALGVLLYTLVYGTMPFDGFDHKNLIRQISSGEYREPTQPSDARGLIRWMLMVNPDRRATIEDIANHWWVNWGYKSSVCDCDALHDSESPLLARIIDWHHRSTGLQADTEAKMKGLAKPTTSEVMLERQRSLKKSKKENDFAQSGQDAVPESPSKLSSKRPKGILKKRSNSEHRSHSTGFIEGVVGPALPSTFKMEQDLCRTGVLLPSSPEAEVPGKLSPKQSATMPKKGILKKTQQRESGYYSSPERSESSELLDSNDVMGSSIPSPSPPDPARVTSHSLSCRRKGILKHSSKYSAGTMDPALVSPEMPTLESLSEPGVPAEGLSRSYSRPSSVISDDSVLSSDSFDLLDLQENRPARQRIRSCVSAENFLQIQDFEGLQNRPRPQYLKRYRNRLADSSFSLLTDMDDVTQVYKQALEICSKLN

[6] = experiment wp146, direction down

Sequence of protein kinases (human kinome) (Homo sapiens, UniProt Q9BYT3) (Q9BYT3 whole entry): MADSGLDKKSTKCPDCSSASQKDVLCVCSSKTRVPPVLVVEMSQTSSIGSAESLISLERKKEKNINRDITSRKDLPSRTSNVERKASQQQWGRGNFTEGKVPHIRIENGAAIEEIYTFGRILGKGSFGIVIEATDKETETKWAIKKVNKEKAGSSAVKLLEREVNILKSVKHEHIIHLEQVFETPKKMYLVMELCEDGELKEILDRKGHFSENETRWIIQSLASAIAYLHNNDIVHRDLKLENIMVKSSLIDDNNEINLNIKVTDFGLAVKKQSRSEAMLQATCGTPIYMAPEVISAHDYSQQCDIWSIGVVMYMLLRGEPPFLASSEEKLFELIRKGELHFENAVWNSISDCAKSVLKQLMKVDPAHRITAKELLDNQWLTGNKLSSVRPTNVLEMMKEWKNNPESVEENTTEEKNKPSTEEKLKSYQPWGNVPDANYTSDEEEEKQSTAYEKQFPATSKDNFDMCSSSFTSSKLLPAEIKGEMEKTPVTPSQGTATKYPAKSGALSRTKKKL
Sequence of protein kinases (human kinome) (Homo sapiens, UniProt Q15208) (Q15208 whole entry): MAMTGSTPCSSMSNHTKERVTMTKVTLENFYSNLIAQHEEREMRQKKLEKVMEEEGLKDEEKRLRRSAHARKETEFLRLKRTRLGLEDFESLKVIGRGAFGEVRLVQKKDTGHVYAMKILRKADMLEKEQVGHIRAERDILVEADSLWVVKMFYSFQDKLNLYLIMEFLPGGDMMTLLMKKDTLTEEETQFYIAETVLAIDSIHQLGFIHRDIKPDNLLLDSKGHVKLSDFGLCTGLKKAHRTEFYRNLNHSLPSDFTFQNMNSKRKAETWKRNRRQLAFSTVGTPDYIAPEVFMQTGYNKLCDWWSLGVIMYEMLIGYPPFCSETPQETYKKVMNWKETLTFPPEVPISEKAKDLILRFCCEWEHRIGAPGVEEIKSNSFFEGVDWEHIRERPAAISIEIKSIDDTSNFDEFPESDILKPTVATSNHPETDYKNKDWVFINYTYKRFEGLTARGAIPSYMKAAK
Sequence of protein kinases (human kinome) (Homo sapiens, UniProt Q15131) (Q15131 whole entry): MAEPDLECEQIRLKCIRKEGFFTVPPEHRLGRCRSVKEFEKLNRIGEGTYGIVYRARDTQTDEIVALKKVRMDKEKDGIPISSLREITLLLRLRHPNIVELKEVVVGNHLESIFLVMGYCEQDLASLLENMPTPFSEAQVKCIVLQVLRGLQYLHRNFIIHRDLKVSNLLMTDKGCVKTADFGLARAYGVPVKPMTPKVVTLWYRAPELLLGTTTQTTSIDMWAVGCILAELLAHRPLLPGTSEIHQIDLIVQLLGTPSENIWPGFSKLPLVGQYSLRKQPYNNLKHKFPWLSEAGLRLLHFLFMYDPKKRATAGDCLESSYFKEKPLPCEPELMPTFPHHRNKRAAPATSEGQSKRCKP

CC(C)S(=O)(=O)c1ccccc1Nc1nc(Nc2ccc(N3CCN(CCOCCNC(=O)CNc4cccc5c4C(=O)N(C4CCC(=O)NC4=O)C5=O)CC3)cc2)ncc1Cl (centres unmarked) [SK.3.91]
logFC ([1]; experiment wp105): −2.057
logFC ([1]; experiment wp105, direction down): −2.057
logFC ([1]; experiment wp172): −2.227
logFC ([1]; experiment wp172, direction down): −2.227
logFC ([2]; CDK10 (Q15131-1), experiment wp133, 4 hr): −0.544
logFC of CDK10 (Q15131-1) ([2]; experiment wp133, 4 hr): −0.544
logFC ULK3 (Q6PHR2-1) ([3]; Experiment wp160, 2 hr): −0.503
logFC ULK3 (Q6PHR2-1) ([3]; Experiment wp172): −0.8151
logFC ULK3 ([3]; experiment wp016, 1 uM): −1.03
logFC ULK3 ([3]; experiment wp103): −0.9651
logFC ULK3 ([3]; experiment wp105): −0.837
logFC ULK3 ([3]; experiment wp133, 2 hr): −0.5817
logFC ULK3 ([3]; experiment wp133, 4 hr): −1.062
logFC ULK3 ([3]; experiment wp160, 2 hr): −0.503
logFC ULK3 ([3]; experiment wp160, 4 hr): −0.9689
logFC ULK3 ([3]; experiment wp172): −0.8151
logFC ULK3 (Q6PHR2-1) ([3]; experiment wp016, 1 uM): −1.03
logFC ULK3 (Q6PHR2-1) ([3]; experiment wp103): −0.9651
logFC ULK3 (Q6PHR2-1) ([3]; experiment wp105): −0.837
logFC ULK3 (Q6PHR2-1) ([3]; experiment wp133, 2 hr): −0.5817
logFC ULK3 (Q6PHR2-1) ([3]; experiment wp133, 4 hr): −1.062
logFC ULK3 (Q6PHR2-1) ([3]; experiment wp160, 4 hr): −0.9689

CC(C)S(=O)(=O)c1ccccc1Nc1nc(Nc2ccc(N3CCN(CCOCCOCCC(=O)NCCNc4cccc5c4CN(C4CCC(=O)NC4=O)C5=O)CC3)cc2)ncc1Cl (centres unmarked) [TL13.97]
logFC ULK3 ([3]; experiment wp137): −0.3729
logFC ULK3 (Q6PHR2-1) ([3]; experiment wp137): −0.3729
logFC ([4]; experiment wp137): −0.3912
logFC of STK38 (Q15208) ([4]; experiment wp137): −0.3912

NC(=O)c1c(F)cccc1Nc1nc(Nc2ccc(S(=O)(=O)NCCOCCOCCOCCOCCNc3cccc4c3C(=O)N(C3CCC(=O)NC3=O)C4=O)cc2)ncc1Br (centres unmarked) [TMX.02.138]
logFC ([1]; experiment wp146): −1.335
logFC [1, 6]: −1.335
logFC [5]: −0.8254
logFC ([5]; direction down): −0.8254
logFC ([4]; experiment wp146): −0.3476
logFC of STK38 (Q15208) ([4]; experiment wp146): −0.3476

Cc1cc(Nc2ncc(Br)c(Nc3cccc(F)c3C(N)=O)n2)ccc1S(=O)(=O)NCCOCCOCCOCCOCCNc1cccc2c1C(=O)N(C1CCC(=O)NC1=O)C2=O (centres unmarked) [TMX.02.174]
logFC ([1]; experiment wp146): −1.763
logFC [1, 6]: −1.763
logFC [5]: −1.361
logFC ([5]; direction down): −1.361
logFC ([4]; experiment wp146): −0.4117
logFC of STK38 (Q15208) ([4]; experiment wp146): −0.4117
